From EP3074389B1, “QUINOLINE DERIVATIVES AS BROMODOMAIN INHIBITORS” (Gilead Sciences, Inc., priority 2013, dated 2015)

Experiments:
BRD4 domain 1 = BRD4 domain 1 (Homo sapiens, UniProt O60885); experiment: Kd determination of inhibitors binding to BRD4 domain 1 (Epic label-free platform); details: direct binding to immobilized BRD4 domain 1; tripling dilution series from 20µM; about 1hr equilibrium; rounded to whole number; read-out: Epic Kd BRD41
Procedure, shortened: (§1)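 Label-free resonant waveguide (Epic) direct binding to BRD4 domain 1 or domain 2 amine-coupled via EDC/Sulfo-NHS at 150 µg/mL in 20 mM HEPES pH 7. Binding response taken as wavelength shift (pm) between baseline and second read; Kd from fit to a single-site binding isotherm.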

BRD4 domain 2 = BRD4 domain 2 (Homo sapiens, UniProt O60885); experiment: Kd determination of inhibitors binding to BRD4 domain 2 (Epic label-free platform); details: direct binding to immobilized BRD4 domain 2; tripling dilution series from 20µM; about 1hr equilibrium; rounded to whole number
Procedure, shortened: as §1

| Structure (SMILES) | Kd (BRD4 domain 1) [nM] | Kd (BRD4 domain 2) [nM] |
| --- | --- | --- |
| Cc1noc(C)c1-c1cc(S(=O)(=O)NC2CCCC2)c2cc(NCCN3CCOCC3)c(=O)[nH]c2c1 [Compound 90, N-cyclopentyl-7-(3,5-dimethylisoxazol-4-yl)-3-((2-morpholinoethyl)amino)-2-oxo-1,2-dihydroquinoline-5-sulfonamide] | 652 | 560 |
| Cc1noc(C)c1-c1cc(S(=O)(=O)NC2CCCC2)c2cc(NCCOCCO)c(=O)[nH]c2c1 [Compound 91, N-cyclopentyl-7-(3,5-dimethylisoxazol-4-yl)-3-((2-(2-hydroxyethoxy)ethyl)amino)-2-oxo-1,2-dihydroquinoline-5-sulfonamide] | 705 | 473 |
| Cc1noc(C)c1-c1cc(S(=O)(=O)NC2CCCC2)c2cc(NC(CO)CO)c(=O)[nH]c2c1 [Compound 92, N-cyclopentyl-3-((1,3-dihydroxypropan-2-yl)amino)-7-(3,5-dimethylisoxazol-4-yl)-2-oxo-1,2-dihydroquinoline-5-sulfonamide] | 897 | 493 |
| Cc1noc(C)c1-c1cc(S(=O)(=O)NC2CCCC2)c2cc(NCC(O)CO)c(=O)[nH]c2c1 (stereo not shown) [Compound 93, N-cyclopentyl-3-((2,3-dihydroxypropyl)amino)-7-(3,5-dimethylisoxazol-4-yl)-2-oxo-1,2-dihydroquinoline-5-sulfonamide] | 951 | 417 |
| Cc1noc(C)c1-c1cc(S(=O)(=O)NC2CCCC2)c2cc(NCCCN)c(=O)[nH]c2c1 [Compound 94, 3-((3-aminopropyl)amino)-N-cyclopentyl-7-(3,5-dimethylisoxazol-4-yl)-2-oxo-1,2-dihydroquinoline-5-sulfonamide] | 743 | 569 |
| Cc1noc(C)c1-c1cc(S(=O)(=O)NC2CCCC2)c2cc(NCCCN(C)C)c(=O)[nH]c2c1 [Compound 95, N-cyclopentyl-3-((3-(dimethylamino)propyl)amino)-7-(3,5-dimethylisoxazol-4-yl)-2-oxo-1,2-dihydroquinoline-5-sulfonamide] | 798 | 503 |

Results, then the compound that gave them:

| Kd (BRD4 domain 1) [nM] | Kd (BRD4 domain 2) [nM] | Structure (SMILES) |
| --- | --- | --- |
| 467 | 433 | Cc1noc(C)c1-c1cc(S(=O)(=O)NC2CCCC2)c2cc(NC3COC3)c(=O)[nH]c2c1 [Compound 96, N-cyclopentyl-7-(3,5-dimethylisoxazol-4-yl)-3-(oxetan-3-ylamino)-2-oxo-1,2-dihydroquinoline-5-sulfonamide] |
| 936 | 658 | Cc1noc(C)c1-c1cc(S(=O)(=O)NC2CCCC2)c2cc(NC(C)(C)CO)c(=O)[nH]c2c1 [Compound 97, N-cyclopentyl-7-(3,5-dimethylisoxazol-4-yl)-3-((1-hydroxy-2-methylpropan-2-yl)amino)-2-oxo-1,2-dihydroquinoline-5-sulfonamide] |
| 1030 | 545 | Cc1noc(C)c1-c1cc(S(=O)(=O)NC2CCCC2)c2cc(NCC(C)(C)O)c(=O)[nH]c2c1 [Compound 98, N-cyclopentyl-7-(3,5-dimethylisoxazol-4-yl)-3-((2-hydroxy-2-methylpropyl)amino)-2-oxo-1,2-dihydroquinoline-5-sulfonamide] |
| 671 | 632 | Cc1noc(C)c1-c1cc(S(=O)(=O)NC2CCCC2)c2cc(NCC(C)(C)N)c(=O)[nH]c2c1 [Compound 99, 3-((2-amino-2-methylpropyl)amino)-N-cyclopentyl-7-(3,5-dimethylisoxazol-4-yl)-2-oxo-1,2-dihydroquinoline-5-sulfonamide] |
| 8950 | 11400 | Cc1noc(C)c1-c1cc(S(=O)(=O)N[C@H](C)C(F)(F)F)c2cccnc2c1 [Compound 100, (R)-7-(3,5-dimethylisoxazol-4-trifluoropropan-2-yl)quinoline-5-sulfonamide] |
